In patent publication US12507703B2, “Methods, devices and compositions for preserving human milk” (The Trustees of Princeton University, priority 2023, dated 2025):
Where “and” joins values, the source holds several entries; their conditions need not be identical. Equal values may be shown once.

What follows are compounds tested on lipase (assay: Lipase/lipolysis assay (EnzChek Lipase Substrate, quenched BODIPY-fatty acid conjugate) on stored human milk). Conditions: not given.
Also: test concentration or dose not given here.

| Compound | Lipase (RFU) |
| --- | --- |
| CCCCCCCCCCC/C=C\CCCCC(=O)O [Petroselinic acid] | 886.6723 RFU |
| COc1cc(-c2[o+]c3cc(O)cc(O)c3cc2O)cc(O)c1O.[Cl-] [Petunidin (chloride)] | 1018.887 RFU |
| c1ccc2c(c1)Nc1ccccc1S2 [Phenothiazine] | 725.1361 RFU |
| O=C(O)COc1ccccc1 [Phenoxyacetic acid] | 872.4796 RFU and 824.9859 RFU |
| CN(CC(=O)O)C(=N)NP(=O)(O)O [Phosphocreatine] | 915.1867 RFU |
| C[N+](C)(C)CCOP(=O)(O)O [Phosphoryl Choline] | 931.0385 RFU |
| C[N+](C)(C)CCOP(=O)(O)O.[Cl-] [Phosphorylcholine (chloride)] | 831.0181 RFU |
| C[N+](C)(C)CCOP(=O)(O)O [Phosphorylcholine] | 1107.376 RFU |
| CC1=C(C/C=C(\C)CCC[C@H](C)CCC[C@H](C)CCCC(C)C)C(=O)c2ccccc2C1=O [Phylloquinone] | 1038.691 RFU |
| O.O=P([O-])([O-])OC1C(OP(=O)([O-])[O-])C(OP(=O)([O-])[O-])C(OP(=O)([O-])[O-])C(OP(=O)([O-])[O-])C1OP(=O)([O-])[O-].[Na+].[Na+].[Na+].[Na+].[Na+].[Na+].[Na+].[Na+].[Na+].[Na+].[Na+].[Na+] (stereo not shown) [Phytic acid (dodecasodium hydrate)] | 1018.084 RFU and 920.5233 RFU |
| CC1=C(C=O)C(C)(C)C[C@H](O[C@@H]2O[C@H](CO)[C@@H](O)[C@H](O)[C@H]2O)C1 [Picrocrocin] | 633.2514 RFU |
| COc1cc(O)c(C(=O)/C=C/c2ccccc2)c(O)c1 [Pinostrobin chalcone] | 969.4657 RFU |
| C1CNCCN1.O=C(O)CC(O)(CC(=O)O)C(=O)O [Piperazine (citrate)] | 986.285 RFU |
| CC(=O)CCc1ccc2c(c1)OCO2 [Piperonyl acetone] | 718.0889 RFU |
| C=C(C[C@@H](O)[C@](C)(O)[C@H]1CC[C@@]2(O)C3=CC(=O)[C@@H]4C[C@@H](O)[C@@H](O)C[C@]4(C)[C@H]3CC[C@]12C)C(C)C [Polyporusterone B] | 1175.382 RFU |
| NCc1[nH]cc(CCC(=O)O)c1CC(=O)O [Porphobilinogen] | 1154.849 RFU |
| O=C([O-])[C@H](O)[C@@H](O)[C@H](O)[C@H](O)CO.[K+] [Potassium Gluconate] | 966.4096 RFU and 888.9701 RFU |
| O=C([O-])O.[K+] [Potassium bicarbonate] | 726.638 RFU |
| C/C=C/C=C/C(=O)[O-].[K+] [Potassium sorbate] | 727.0693 RFU and 1055.671 RFU |
| Oc1cc(O)c2c(c1)OC1(c3ccc(O)c(O)c3)Oc3cc(O)c4c(c3C2C1O)OC(c1ccc(O)c(O)c1)C(O)C4 (stereo not shown) [Procyanidin A1] | 1206.886 RFU |
| Oc1cc(O)c2c(c1)O[C@H](c1ccc(O)c(O)c1)[C@H](O)[C@H]2c1c(O)cc(O)c2c1O[C@H](c1ccc(O)c(O)c1)[C@H](O)C2 [Procyanidin B2] | 808.3168 RFU |
| CCCCC[C@H](O)/C=C/[C@H]1C(=O)C[C@H](O)[C@@H]1C/C=C\CCCC(=O)O [Prostaglandin D2] | 071064.5 RFU |
| CCCCC[C@H](O)/C=C/[C@H]1[C@H](O)CC(=O)[C@@H]1CCCCCCC(=O)O [Prostaglandin E1] | 787.5664 RFU |

| Compound | Lipase (RFU) |
| --- | --- |
| CCCCC[C@H](O)/C=C/[C@H]1[C@H](O)CC(=O)[C@@H]1C/C=C\CCCC(=O)O [Prostaglandin E2] | 1264.564 RFU |
| O=C(O)c1ccc(O)c(O)c1 [Protocatechuic acid] | 981.5941 RFU and 972.5566 RFU |
| COc1ccc(-c2oc3c(OC)c(O)cc(O)c3c(=O)c2O)cc1 [Prudomestin] | 894.1495 RFU |
| COc1cc(O)c2c(=O)c(-c3ccc(O)cc3)coc2c1 [Prunetin] | 865.5495 RFU |
| CC(C)=CCc1cc2c(cc1O)oc(=O)c1c3ccc(O)cc3oc21 [Psoralidin] | 1084.87 RFU |
| CC(C)=C1CC[C@@H](C)CC1=O [Pulegone] | 791.7693 RFU and 1146.187 RFU |
| O=C(O)c1cccc(O)c1O [Pyrocatechuic acid] | 896.9439 RFU |
| O=P(O)(O)OP(=O)(O)O [Pyrophosphate] | 1218.619 RFU and 873.0451 RFU |
| O=Cc1ccc[nH]1 [Pyrrole-2-carboxaldehyde] | 882.4774 RFU |
| O=c1c(O)c(-c2ccc(O)c(O)c2)oc2cc(O)c(O)c(O)c12 [Quercetagetin] | 891.7095 RFU |
| C[C@@H]1O[C@@H](O[C@H]2[C@H](Oc3c(-c4ccc(O)c(O)c4)oc4cc(O)cc(O)c4c3=O)O[C@H](CO)[C@@H](O)[C@@H]2O)[C@H](O)[C@H](O)[C@H]1O [Quercetin 3-O-neohesperidoside] | 838.5308 RFU |
| O=c1c(O[C@@H]2O[C@H](CO[C@@H]3O[C@H](CO)[C@@H](O)[C@H](O)[C@H]3O)[C@@H](O)[C@H](O)[C@H]2O)c(-c2ccc(O)c(O)c2)oc2cc(O)cc(O)c12 [Quercetin 3-gentiobioside] | 676.8795 RFU |
| O.O.O=c1c(O)c(-c2ccc(O)c(O)c2)oc2cc(O)cc(O)c12 [Quercetin (dihydrate)] | 1081.937 RFU |
| O=c1c(O)c(-c2ccc(O)c(O)c2)oc2cc(O[C@@H]3O[C@H](CO)[C@@H](O)[C@H](O)[C@H]3O)cc(O)c12 [Quercimeritrin] | 857.409 RFU |
| O=C(O)c1ccc2ccccc2n1 [Quinoline-2-carboxylic acid] | 994.8984 RFU |
| CC(=O)CCc1ccc(O[C@@H]2O[C@H](CO)[C@@H](O)[C@H](O)[C@H]2O)cc1 [Raspberry ketone glucoside] | 1167.769 RFU |
| O=CCCO [Reuterin] | 1125.363 RFU |
| O=C(O)c1cc(O)c2c(c1)C(=O)c1cccc(O[C@@H]3O[C@H](CO)[C@@H](O)[C@H](O)[C@H]3O)c1C2=O [Rhein 8-Glucoside] | 942.9082 RFU |
| C=C(C)[C@H]1Cc2c(ccc3c2O[C@@H]2COc4cc(OC)c(OC)cc4[C@@H]2C3=O)O1 [Rotenone] | 542.204 RFU |
| CC(C)(O)[C@@H]1Cc2cc3ccc(=O)oc3cc2O1 [S-(+)-Marmesin] | 984.7966 RFU |
| Nc1ncnc2c1ncn2[C@@H]1O[C@H](CSCC[C@H](N)C(=O)O)[C@@H](O)[C@H]1O [SAH] | 641.7279 RFU |
| CC1=C(C=O)C(C)(C)CC=C1 [Safranal] | 1026.753 RFU and 1118.736 RFU |
| CC1=C2[C@H]3OC(=O)[C@@H](C)[C@@H]3CC[C@@]2(C)C=CC1=O [Santonin] | 895.7689 RFU |

| Compound | Lipase (RFU) |
| --- | --- |
| CC1(C)CCC[C@]2(C)[C@H]3CC(=O)O[C@]3(C)CC[C@@H]12 [Sclareolide] | 845.6458 RFU |
| C[Se]C[C@H](N)C(=O)O [Se-Methylselenocysteine] | 889.6084 RFU |
| CCC(C)N (stereo not shown) [Sec-Butylamine] | 784.9928 RFU |
| COc1cc(C[C@@H](CO)[C@H](CO)Cc2ccc(O)c(OC)c2)ccc1O [Secoisolariciresinol] | 1112.005 RFU |
| OC[C@@]12OC[C@@H](O1)[C@@H](O)[C@@H](O)[C@@H]2O [Sedoheptulosan] | 1068.783 RFU |
| O=C(O)c1cc(O)c2c(c1)[C@H]([C@H]1c3cc(C(=O)O)cc(O)c3C(=O)c3c(O[C@@H]4O[C@H](CO)[C@@H](O)[C@H](O)[C@H]4O)cccc31)c1cccc(O[C@@H]3O[C@H](CO)[C@@H](O)[C@H](O)[C@H]3O)c1C2=O [Sennoside A] | 1002.323 RFU |
| Oc1ccc2c(c1)OCO2 [Sesamol] | 995.7089 RFU |
| COc1cc([C@@H]2Oc3c(O)cc([C@H]4Oc5cc(O)cc(O)c5C(=O)[C@@H]4O)cc3[C@H]2CO)ccc1O [Silychristin] | 921.666 RFU |
| COc1cc(/C=C/C(=O)OCC[N+](C)(C)C)cc(OC)c1O.N#C[S-] [Sinapine (thiocyanate)] | 1052.349 RFU |
| COc1cc(/C=C/C(=O)OCC[N+](C)(C)C)cc(OC)c1O [Sinapine] | 1084.597 RFU |
| C=CC/C(=N/OS(=O)(=O)[O-])S[C@@H]1OC(CO)[C@@H](O)C(O)C1O.[K+] (stereo partly shown) [Sinigrin] | 1002.884 RFU |
| Cc1c[nH]c2ccccc12 [Skatole] | 735.1893 RFU and 599.6554 RFU |
| O=c1ccc2ccc(O[C@@H]3O[C@H](CO)[C@@H](O)[C@H](O)[C@H]3O)cc2o1 [Skimmin] | 1029.943 RFU |
| C[C@@H]1CC[C@@]2(OC1)O[C@H]1C[C@H]3[C@@H]4CC[C@@H]5C[C@@H](O)CC[C@]5(C)[C@H]4CC[C@]3(C)[C@H]1[C@@H]2C [Smilagenin] | 790.1194 RFU |
| CC(C)(O[C@@H]1O[C@H](CO)[C@@H](O)[C@H](O)[C@H]1O)[C@H]1Oc2cc3oc(=O)ccc3cc2[C@H]1O [Smyrindioloside] | 1066.572 RFU |
| O=C([O-])c1ccccc1O.[Na+] [Sodium Salicylate] | 847.8959 RFU and 820.8026 RFU |
| O=C([O-])O.[Na+] [Sodium bicarbonate] | 751.602 RFU |
| O=C1O[C@H]([C@H](O)CO)C([O-])=C1O.[Na+] [Sodium erythorbate] | 904.5416 RFU |
| CCCCCCCC/C=C\CCCCCCCC(=O)[O-].[Na+] [Sodium oleate] | 985.0339 RFU and 925.2134 RFU |
| C[C@@H]1CC[C@@]2(NC1)O[C@H]1C[C@H]3[C@@H]4CC=C5C[C@@H](O)CC[C@]5(C)[C@H]4CC[C@]3(C)[C@H]1[C@@H]2C [Solasodine] | 1073.206 RFU |
| CC1(C)C[C@H]2C3=CC[C@@H]4[C@@]5(C)CC[C@H](O)[C@](C)(CO)[C@@H]5CC[C@@]4(C)[C@]3(C)CC[C@@]2(C)[C@H](O)[C@@H]1O [Soyasapogenol A] | 1098.785 RFU |
| CC1(C)C[C@@H](O)[C@]2(C)CC[C@]3(C)C(=CC[C@@H]4[C@@]5(C)CC[C@H](O)[C@](C)(CO)[C@@H]5CC[C@]43C)[C@@H]2C1 [Soyasapogenol B] | 1146.412 RFU |

Same assay, conditions: (hydrochloride)

| Compound | Lipase (RFU) |
| --- | --- |
| Cc1ncc(CO)c(CO)c1O.Cl [Pyridoxine (hydrochloride)] | 911.6428 RFU and 799.8007 RFU |

Same assay, conditions: (monohydrate)

| Compound | Lipase (RFU) |
| --- | --- |
| C[C@H](O)[C@H](O)[C@@H](O)[C@@H](O)C=O.O [Rhamnose (monohydrate)] | 978.8722 RFU and 922.0222 RFU |
